Experimental findings from patent publication US20040006236A1, “Diaminopropionic acid derivatives” (priority 1999, published 2004) are described below.

The target in assay [1] is T1, LFA-1 binding to immobilized ICAM-1 (Homo sapiens, UniProt P05107+P20701).
T1 construct: made in house; host or cells: transfected 293 cells (LFA-1)
Kind of assay: LFA-1/ICAM-1 protein-protein assay (solid-phase ELISA). Here is the method:
(a) LFA-1/ICAM-1 screening test: LFA-1/ICAM-1 antagonist activity, defined as the ability of compounds of the invention to block LFA-1 binding to immobilized ICAM-1, was quantitated using a solid-phase ELISA.
(§1) Typically, fusion protein consisting of the entire extracellular domain of human ICAM-1 and the Fc domain of human IgG (5dICAM-Ig) was coated onto 96-well microtiter plates (0.15 μg in 100 μL PBS) overnight at 4° C. The plates were then blocked with 150 μL of 1% BSA/1 mM MnCl2/0.14 M NaCl/20 mM HEPES, pH 7.2 for 1 h at 37° C. and washed 3 times (150 μL each) with Wash Buffer (50 mM Tris, pH 7.4/100 mM NaCl/1 mM MnCl2/0.05% Tween 20). Stock solutions (100 μM in 100% DMSO) of test compounds were diluted 50 fold with 150 μL of Binding Buffer (0.05% BSA/0.05% Tween 20/1 mM MnCl2/0.14 M NaCl/20 mM HEPES, pH 7.2) plus 10% DMSO. […] Fifty μL per well of each dilution was added to the ICAM-1 coated plates, followed by 50 μL per well of membrane-bound LFA-1 (280 ng/mL in Binding Buffer) derived from transfected 293 cells. The plates were shaken vigorously for 1 min (room temperature) and gently for 2 h (37° C.). After incubation, the plates were washed 3 times (150 μL each) with Wash Buffer. Mouse anti-human integrin β2 monoclonal antibody was added (100 μL/well, 1 μg/mL in Binding Buffer) and allowed to incubate for 1 h (37° C.) with gentle agitation. The plates were then washed 3 times with Wash Buffer. HRP-conjugated goat anti-mouse IgG (100 μL/well, 1:1500 dilution in Binding Buffer) was added to each well, followed by incubation for 1 h (37° C.), and concluded by three washes (150 μL each) with Wash Buffer. TMB solution (100 μL per well) was added for color development (10 min). The reaction was stopped by the addition of 100 μL of 1 M H3PO4 to each well. The plates were then read at 450 nm. The inhibitory activities of test compounds were determined by the IC50s.
as §1, with “LFA-1/ICAM-1 antagonist activity, defined as the ability to block LFA-1 binding to immobilized ICAM-1, was quantitated using a solid-phase ELISA. Typically,” for “Typically,”, “(0.05 %” for “(0.05%”, “nm.” for “nm. The inhibitory activities of test compounds were determined by the IC50s.”

The target of assay [2] is T2, ICAM-1 binding to immobilized Mac-1 (Homo sapiens, UniProt P05107+P11215).
T2 construct: made in house; host or cells: transfected 293 cells (Mac-1)
Kind of assay: Mac-1/ICAM-1 screening assay (solid-phase ELISA). As for the experimental part:
(b) Mac-1/ICAM-1 screening test: Mac-1/ICAM-1 antagonist activity, defined as the ability to compete with ICAM-1 binding to immobilized Mac-1, was quantitated by a solid-phase ELISA.
(§2) Membrane-bound Mac-1 derived from transfected 293 cells was coated onto 96-well microtiter plates (50 μL/well, 3 μg/mL Mac-1 in 20 mM Hepes, pH 7.2/0.14 M NaCl/1 mM MnCl2) overnight at 4° C. The plates were blocked with 100 μL/well of 0.5% BSA in 20 mM Hepes, pH 7.2/0.14 M NaCl/1 mM MnCl2 at 37° C. for 1 h and washed 3 times (120 μL each) with Binding Buffer (20 mM Hepes, pH 7.2/0.14 M NaCl/1 mM MnCl2/0.05% Tween 20). Test compounds were dissolved in 100% DMSO and diluted 1:50 in Binding Buffer plus 10% DMSO. A series of 1:4 dilutions were performed for each compound (concentration range, 0.12 nM-20 μM). Each dilution (25 μL/well) was added to the plates, followed by 25 μL/well of 5 dICAM-Ig (40 μg/mL in Binding Buffer). The plates were shaken vigorously for 1 min (room temperature), followed by gentle agitation for 2 h (37° C.), and washed with Binding Buffer (3 times, 120 μL each). HRP-conjugated goat anti-human IgG(Fc-specific) antibody (0.125 μg/mL in Binding Buffer plus 0.05% BSA) was added to each well (50 μL/well), followed by incubation for 1 h at 37° C. The plates were then washed 3 times with Binding Buffer (120 μL each). TMB solution (100 μL/well) was added to each well for color development for 10 min. The reaction was stopped with 1 M H3PO4 (100 μL/well) and the plates were read at 450 nm. The inhibitory activities of test compounds were determined by the IC50s.
as §2, with “Mac-1/ICAM-1 antagonist activity, defined as the ability to compete with ICAM-1 binding to immobilized Mac-1, was quantitated by a solid-phase ELISA. Membrane-bound” for “Membrane-bound”, “5dICAM-Ig” for “5 dICAM-Ig”, “nm.” for “nm. The inhibitory activities of test compounds were determined by the IC50s.”

Setting [3] is: read-out: LFA-1/ICAM-1 Protein-Protein Assay IC50.
[4] abbreviates: read-out: Mac-1/ICAM-1 Protein-Protein Assay IC50.

Molecules are shown by their SMILES. Where two headings read alike, the source gives them in different places.

T1 sequence (P20701 26-1170): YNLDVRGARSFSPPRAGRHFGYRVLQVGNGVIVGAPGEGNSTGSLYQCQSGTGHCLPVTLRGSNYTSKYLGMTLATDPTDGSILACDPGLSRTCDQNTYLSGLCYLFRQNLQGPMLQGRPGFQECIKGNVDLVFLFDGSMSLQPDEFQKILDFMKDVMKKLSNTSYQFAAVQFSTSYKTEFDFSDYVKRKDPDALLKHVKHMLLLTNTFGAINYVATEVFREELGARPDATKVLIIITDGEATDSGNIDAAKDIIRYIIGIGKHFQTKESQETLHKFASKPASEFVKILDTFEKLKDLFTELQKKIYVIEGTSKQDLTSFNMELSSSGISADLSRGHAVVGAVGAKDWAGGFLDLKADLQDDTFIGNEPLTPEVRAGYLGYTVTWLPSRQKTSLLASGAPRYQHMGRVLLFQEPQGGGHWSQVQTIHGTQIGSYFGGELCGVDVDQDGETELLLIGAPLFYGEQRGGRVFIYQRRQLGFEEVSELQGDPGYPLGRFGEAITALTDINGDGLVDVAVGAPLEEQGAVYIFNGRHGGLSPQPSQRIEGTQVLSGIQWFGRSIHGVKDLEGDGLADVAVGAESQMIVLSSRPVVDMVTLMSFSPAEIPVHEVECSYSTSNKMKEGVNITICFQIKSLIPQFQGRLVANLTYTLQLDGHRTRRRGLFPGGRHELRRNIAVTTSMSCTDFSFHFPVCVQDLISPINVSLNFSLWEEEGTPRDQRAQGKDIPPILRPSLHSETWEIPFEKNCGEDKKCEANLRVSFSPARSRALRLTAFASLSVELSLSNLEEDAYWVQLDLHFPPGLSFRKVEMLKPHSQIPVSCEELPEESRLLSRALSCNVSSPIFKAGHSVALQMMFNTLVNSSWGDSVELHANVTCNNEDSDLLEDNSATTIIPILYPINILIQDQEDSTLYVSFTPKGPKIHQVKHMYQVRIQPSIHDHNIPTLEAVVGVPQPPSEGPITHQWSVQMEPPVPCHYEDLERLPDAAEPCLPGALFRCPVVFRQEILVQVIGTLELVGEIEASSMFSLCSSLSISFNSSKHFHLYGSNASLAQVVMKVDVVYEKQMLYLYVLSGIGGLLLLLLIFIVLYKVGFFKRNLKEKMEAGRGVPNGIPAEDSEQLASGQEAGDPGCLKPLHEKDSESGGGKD
T1 sequence (P05107 23-769): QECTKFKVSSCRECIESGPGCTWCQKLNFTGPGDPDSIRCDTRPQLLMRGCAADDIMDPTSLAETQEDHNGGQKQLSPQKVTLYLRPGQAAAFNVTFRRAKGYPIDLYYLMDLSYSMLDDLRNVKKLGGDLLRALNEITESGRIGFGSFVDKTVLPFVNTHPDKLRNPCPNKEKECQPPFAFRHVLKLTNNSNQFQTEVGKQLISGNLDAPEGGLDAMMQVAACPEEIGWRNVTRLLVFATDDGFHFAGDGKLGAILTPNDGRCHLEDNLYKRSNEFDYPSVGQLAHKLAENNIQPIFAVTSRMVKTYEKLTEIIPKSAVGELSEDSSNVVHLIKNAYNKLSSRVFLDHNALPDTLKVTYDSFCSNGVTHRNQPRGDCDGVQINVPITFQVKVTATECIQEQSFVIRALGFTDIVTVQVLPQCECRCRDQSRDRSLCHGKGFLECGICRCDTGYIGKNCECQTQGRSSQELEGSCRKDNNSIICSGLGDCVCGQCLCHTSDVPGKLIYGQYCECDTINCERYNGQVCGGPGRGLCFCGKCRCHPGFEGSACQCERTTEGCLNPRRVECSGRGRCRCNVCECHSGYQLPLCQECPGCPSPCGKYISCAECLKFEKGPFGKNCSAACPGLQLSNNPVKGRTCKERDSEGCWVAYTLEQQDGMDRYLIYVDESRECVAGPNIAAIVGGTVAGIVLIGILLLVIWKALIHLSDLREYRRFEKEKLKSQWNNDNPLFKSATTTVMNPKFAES
T2 sequence (P05107 23-769, other chains not shown): as the sequence (P05107 23-769) above

With `O=C(NCc1cccc(O)c1)c1ccc(C(=O)N[C@@H](CNC(=O)c2cc3ccccc3oc2=O)C(=O)O)c(Cl)c1` [Example 188], the IC50 in assay [1] (setting [3]) was 3.4 nM; in assay [2] (setting [4]) it was 146 nM.

As to `O=C(NC[C@H](NC(=O)c1c(F)cccc1Cl)C(=O)O)c1ccccc1` [Example 220], the IC50 came to 14 nM in assay [1] (setting [3]) and 304 nM in assay [2] (setting [4]).

`COc1cccc(C(=O)NC[C@H](NC(=O)c2ccc(C(=O)NCc3cccc(O)c3)cc2Cl)C(=O)O)c1` [Compound A, N-[2-chloro-4-[[[(3-hydroxyphenyl)methyl]amino]carbonyl]benzoyl]-3-(3-methoxybenzoyl)amino-L-alanine]: the results for the IC50 in assay [1] (read-out: LFA-1/ICAM IC50) and in assay [2] (read-out: Mac-1/ICAM IC50) were 1.2 nM and 43.4 nM, respectively.

For `O=C(NCc1cccc(O)c1)c1ccc(C(=O)N[C@@H](CNC(=O)c2nccnc2C(=O)Nc2ccc(Cl)cn2)C(=O)O)c(Cl)c1` [Example 171], the IC50 in assay [1] (setting [3]) was found to be 1 nM; in assay [2] (setting [4]) it was 136 nM.

Take `O=C(NCc1cccc(O)c1)c1ccc(C(=O)N[C@@H](CNC(=O)c2cc([N+](=O)[O-])[nH]n2)C(=O)O)c(Cl)c1` [Compound C, N-[2-chloro-4-[[[(3-hydroxyphenyl)methyl]amino]carbonyl]benzoyl]-3-(5-nitropyrazole-3-carbonyl)amino-L-alanine]: the figures for the IC50 in assay [1] (read-out: LFA-1/ICAM IC50) and in assay [2] (read-out: Mac-1/ICAM IC50) were 6.4 nM and 101 nM, respectively.

Consider `O=C(NCc1cccc(O)c1)c1ccc(C(=O)N[C@@H](CNC(=O)c2cc(=O)[nH]c(=O)[nH]2)C(=O)O)c(Cl)c1` [Example 173], for which the IC50 in assay [1] (setting [3]) came out at 0.6 nM; in assay [2] (setting [4]) it was 36 nM.

As for `O=C(NCc1cccc(O)c1)c1ccc(C(=O)N[C@@H](CNC(=O)c2cc3ccccc3o2)C(=O)O)c(Cl)c1` [Example 174], the IC50 turned out to be 3.4 nM in assay [1] (setting [3]) and 91 nM in assay [2] (setting [4]).

For `O=C(NCc1cccc(O)c1)c1ccc(C(=O)N[C@@H](CNC(=O)c2c[nH]c(=O)[nH]c2=O)C(=O)O)c(Cl)c1` [Example 172], the IC50 in assay [1] (setting [3]) worked out at 7 nM; in assay [2] (setting [4]), 538 nM.

Consider `O=C(NCc1cccc2[nH]ccc12)c1ccc(C(=O)N[C@@H](CNCc2ccccc2)C(=O)O)c(Cl)c1` [Compound J, 3-(phenylmethyl)amino-N-[2-chloro-4-[[(1H-indol-4-ylmethyl)amino]carbonyl]benzoyl]-L-alanine], for which the IC50 turned out to be 11.9 nM in assay [1] (read-out: LFA-1/ICAM IC50) and 1410 nM in assay [2] (read-out: Mac-1/ICAM IC50).

As to `O=C(NCc1cccc(O)c1)c1ccc(C(=O)N[C@@H](CNC(=O)c2nc3ccccc3nc2O)C(=O)O)c(Cl)c1` [Example 186], the IC50 in assay [1] (setting [3]) amounted to 1.6 nM; in assay [2] (setting [4]), 167 nM.

On to `O=C(NCc1cccc(O)c1)c1ccc(C(=O)N[C@@H](CNC(=O)c2c3ccccc3cc3ccccc23)C(=O)O)c(Cl)c1` [Example 189], for which the IC50 in assay [1] (setting [3]) was found to be 18 nM; in assay [2] (setting [4]) it was 1050 nM.

As for `O=C(NCc1cccc(O)c1)c1ccc(C(=O)N[C@@H](CNC(=O)c2ccc3[nH]cnc3c2)C(=O)O)c(Cl)c1` [Example 176], the IC50 in assay [1] (setting [3]) was 1.2 nM; in assay [2] (setting [4]), 54 nM.

On to `COc1ccc(C(=O)NC[C@H](NC(=O)c2ccc(C(=O)NCc3cccc(O)c3)cc2Cl)C(=O)O)c(OC)n1` [Example 168], for which the IC50 worked out at 12 nM in assay [1] (setting [3]) and 224 nM in assay [2] (setting [4]).

For the compound `O=C(NCc1cccc(O)c1)c1ccc(C(=O)N[C@@H](CNC(=O)c2ccc(Cl)nc2)C(=O)O)c(Cl)c1` [Example 167], the IC50 worked out at 2.2 nM in assay [1] (setting [3]) and 39 nM in assay [2] (setting [4]).

As for `O=C(NCc1cccc(O)c1)c1ccc(C(=O)N[C@@H](CNC(=O)c2cccs2)C(=O)O)c(Cl)c1` [Compound D, N-[2-chloro-4-[[[(3-hydroxyphenyl)methyl]amino]carbonyl]benzoyl]-3-(thiophene-2-carbonyl)amino-L-alanine], the IC50 in assay [1] (read-out: LFA-1/ICAM IC50) was determined as 0.5 nM; in assay [2] (read-out: Mac-1/ICAM IC50) it was 6.4 nM.

With `O=C(NCc1cccc(O)c1)c1ccc(C(=O)N[C@@H](CNC(=O)c2ccccc2)C(=O)O)c(Cl)c1` [Compound B, 3-benzoylamino-N-[2-chloro-4-[[[(3-hydroxyphenyl)methyl]amino]carbonyl]benzoyl]-L-alanine], the figures for the IC50 in assay [1] (read-out: LFA-1/ICAM IC50) and in assay [2] (read-out: Mac-1/ICAM IC50) were 0.9 nM and 31.2 nM, respectively.

As to `O=C(NCc1cccc(O)c1)c1ccc(C(=O)N[C@@H](CNC(=O)c2cccnc2Cl)C(=O)O)c(Cl)c1` [Example 166], the IC50 was determined as 3 nM in assay [1] (setting [3]) and 68 nM in assay [2] (setting [4]).
